Experimental data published in article PMC3545992, “Trisubstituted Pyrazolopyrimidines as Novel Angiogenesis Inhibitors” (PLoS ONE, 2013).
Read-outs that look alike come from different tables or passages of the source.

How the values were obtained:
Type in all cases: cell-based, human
HMEC-1 cells = assay: Crystal violet proliferation assay; settings: HMEC-1, 72 h, read-out: IC50 endothelial cell proliferation
Protocol: HMEC-1 cells were seeded to a density of 1,500 cells/well. After 24 h of incubation, a zero point control was stained with crystal violet. The remaining cells were left untreated as positive control or treated with 0.3-1-3-10–30 µM of the indicated compounds. After 72 h additional incubation, relative proliferation was determined by crystal violet staining and quantified as absorption at 550 nm.
HMEC-1 were seeded into 96-well-plates (1,500 cells/well). After 24 h, the cells were stimulated with the indicated compounds. At the same time point, cells in a reference plate were stained with crystal violet, serving as initial cell number. After 72 hours of stimulation, cells were fixed and stained with crystal-violet solution for 10 minutes, washed with water, and air dried. Crystal violet was eluted with dissolving buffer and absorbance was measured at 550 nm (Tecan Sunrise Absorbance reader, TECAN, Crailsheim, Germany). In a parallel series of experiments, cells seeded at the same cell density as in the proliferation assays were treated with 30 µM of the respective compound for 72 h. Afterwards, 10 µg/ml propidium iodide was added for 30 min to counterstain cells for membrane integrity. Phase contrast and fluorescence images were obtained with an inverted Nikon microscope (Ti, Nikon, Düsseldorf, Germany) equipped with a 10x objective.

HUVECs [1] = assay: Quantification of lamellipodia and Rac1 immunocytochemistry in migrating cells; settings: 8 h migration; for reduction of formation of lamellipodia: 10 µM; for recruitment of Rac1 to lamellipodia (in words): immunofluorescence
Protocol: A: Confluent layers of HUVECs were scratched and the cells were allowed to migrate for 8 h in the presence or absence of the respective concentration of the compounds, until clear lamellipodia formation was visible in the control. The actin cytoskeleton was then stained with rhodamin-phalloidine and fluorescence images (10x magnification) of the scratches were taken. Left panel: For quantitative evaluation of lamellipodia formation, cells with prominent lamellipodia and ruffles were counted in relation to the number of cells at the scratch front (n = 3, mean ± SEM, * p<0.05, One Way ANOVA, Dunnett). Right panel: Representative images of the scratch front (f-actin, 40x magnification). B: Cells treated like in A were fixed and stained for f-actin (red), cortactin (green) and Rac1 (white). Representative images out of three experiments are shown.
Confluent layers of HUVECs were scratched and stimulated in 8-well μ-slides as described above. The cells were allowed to migrate for 8 h in the presence or absence of the respective concentration of the compounds, until clear lamellipodia formation was visible in the control. The actin cytoskeleton was then stained with rhodamine-phalloidin (Life Technologies, Darmstadt, Germany) and fluorescence images of the scratches were taken in 10x magnification with the Zeiss LSM 510 META. For quantitative evaluation of lamellipodia formation, cells with prominent lamellipodia and ruffles were counted with ImageJ (Cell Counter plug-in by Kurt De Vos) in relation to the total number of cells at the scratch front. The ratio was calculated as number of lamellipodia-positive cells per 100 cells at scratch front. In the same setting immunofluorescence staining was performed. Fixed cells were permeabilized for 2 min with 0.1% Triton X-100 in PBS. Cells were washed and unspecific binding was blocked with 0.2% BSA in PBS for 15 min. Thereafter, cells were incubated with primary antibody (cortactin: rabbit polyclonal, 1∶100, Cell Signaling, and Rac1: mouse monoclonal, 1∶100, Upstate) in 0.2% BSA/PBS over night at 4°C. After three washing steps with PBS, the specimen were incubated with the corresponding AlexaFluor® -labeled secondary antibodies for 30 min at room temperature. Finally, the slides were again washed three times with PBS (5 min), embedded in FluorSave^TM Reagent mounting medium and covered with 8 mm ×8 mm glass cover slips.

HUVECs [2] = assay: Scratch assay (migration assay); settings: 10 µM, 16 h, HUVECs
Protocol: A: HMEC-1 cells were seeded in the same density as for the proliferation assay and treated with the respective compound at 30 µM for 72 h to test whether reduced cell numbers in the proliferation assay are due to inhibition of proliferation or to excessive cell death. No increase of detached, obviously dead or propidium iodide positive cells was detected. B and C: Confluent layers of HUVECs were scratched and the cells were allowed to migrate for 16 h in the presence or absence of 10 µM of the compounds. B: The columns indicate the area re-covered by migrating cells (n = 3, mean ± SEM, * p<0.05, One Way ANOVA, Dunnett). C: Scratches at endpoint, representative images taken out of three experiments.
HUVECs were seeded into a 24-well plate. After reaching confluency, cells were scratched using a 100 µl pipette tip. The wounded monolayers were washed twice with PBS containing Ca^2+/Mg^2+; then growth medium containing the indicated concentration of the compounds was added. After 16 h of migration, cells were washed and subsequently fixed with 4% paraformaldehyde. […] Images were taken using the TILLvisON system (TILL Photonics GmbH, Gräfelfing, Germany) and a CCD-camera connected to an Axiovert 200 microscope (Zeiss, Oberkochen, Germany). Quantitative image analysis of the cell covered area was done by Wimasis GmbH, Munich. A completely closed scratch was set as 100% migration, the area of the original open scratch was set as 0% migration.

HUVECs [3] = assay: Cell viability assay (CellTiter-Blue) in confluent HUVECs; settings: 30 µM, 16 h
Protocol: Figure 2 Cdk5 is expressed in HUVECs and HMEC-1 cells, and the compounds are not cytotoxic to endothelial cells at concentrations used in functional assays. A: Cdk5 protein expression in endothelial cells in comparison to human cortex. Cdk5 protein amount was analyzed by Western blot in samples of human cortex (HC), confluent HUVECs (HU) and HMEC-1 (HM). β-actin served as a loading control and for normalization of protein amount. Relative quantification (left panel) and one representative image (right panel) of three individual blots are shown. Note the much lower protein loading in the HC sample in the right panel. (n = 3, mean ± SEM, p>0.05, One Way ANOVA, Dunnett). B: Confluent HUVECs were treated for 16 h with 10 or 30 µM of the indicated compounds or left untreated as control. After addition of CellTiter-BlueTM Reagent, cells were incubated for 4 h and fluorescence was measured at 560 nm (n = 3, mean ± SEM, * p<0.05, One Way ANOVA, Dunnett).
HUVECs were seeded in 96-well plates. After reaching confluency, the cells were treated for 16 h with the indicated compounds or left untreated as control. After addition of CellTiter-Blue^TM Reagent (Promega Corporation, Madison, WI, USA), cells were incubated for additional 4 h and fluorescence was measured at 560 nm in a plate-reading photometer (SpectraFluor Plus; Tecan, Crailsheim, Germany).

Structure (SMILES)	IC50 (HMEC-1 cells; Homo sapiens) [nM]	reduction of formation of lamellipodia (HUVECs [1]) [%]	recruitment of Rac1 to lamellipodia (in words) (HUVECs [1])	effect on endothelial cell migration (in words) (HUVECs [2])	reduction of endothelial cell migration (HUVECs [2]) [%]	cell viability in comparison to control (HUVECs [3])	IC50 (HMEC-1 cells) [nM]
CC[C@H](CO)Nc1nc(NCc2ccccc2)c2n[nH]c(C(C)C)c2n1 [LGR 1404, 7-Benzylamino-5(R)-[(1-hydroxymethyl)propylamino]-3-isopropyl-1(2)H-pyrazolo[4,3-d]pyrimidine]	7720	54	inhibit recruitment of Rac1 to lamellipodia	significantly decrease	27	weak but significant decrease of viability	–
CC(C)c1n[nH]c2c(NCc3ccccc3)nc(NC3CCCCC3N)nc12 (stereo not shown) [LGR 1406, 5-[(2-E/Z-aminocyclohexyl)amino]-7-benzylamino-3-isopropyl-1(2)H-pyrazolo[4,3-d]pyrimidine]	~1000	67	inhibit recruitment of Rac1 to lamellipodia	significantly decrease	51	weak but significant decrease of viability	930
CC(C)c1n[nH]c2c(NCc3ccccc3)nc(NC3CCC(N)CC3)nc12 (stereo not shown) [LGR 1407, 5-[(4-E-aminocyclohexyl)amino]-7-benzylamino-3-isopropyl-1(2)H-pyrazolo[4,3-d]pyrimidine]	3660	67	inhibit recruitment of Rac1 to lamellipodia	significantly decrease	31	weak but significant decrease of viability	–
